Tested on: HEC-1A cells
Assay: Cytokine/chemokine MultiPlex assay (BioPlex 200) of HEC-1A secretion
Type: cell-based
Settings: 24 hours
From the text: In the model as provided in this example, a method to assess the pro-inflammatory character of antivirals intended to be applied as mucosal topicals was used.
Epithelial cells are capable of secreting a set of molecules called cytokines and chemokines, which are responsible for the recruitment and activation of immune cells at the site of secretion. This process can be deleterious in the context of sexual transmission of HIV-1 because the recruited cells are the preferred targets of the virus. […] A microbicide candidate should therefore not promote inflammation by activating the production of this type of molecule by the cells directly in contact with the substance (epithelial cells). These secretions can be deleterious in the context of sexual transmission of HIV-1 or HPV and other papillomaviruses because the recruited cells are the preferred targets of the virus. A microbicide candidate must thus not promote inflammation by activating the production of these types of molecules by the cells in contact with the substance (epithelial cells).
After 24 hours of incubation, a panel of 48 inflammation-related cytokines/chemokines is assayed by MultiPlex (BioPlex 200 BioRad) in the basal medium.

## zinc tetra-ascorbo-camphorate [C14]
0 μM
  CTACK: 4.29 pg/mL
  Eotaxin: 0.87 pg/mL
  FGF: 1.515 pg/mL
  G-CSF: 1.885 pg/mL
  GM-CSF: 7.005 pg/mL
  GROα: 2.75 pg/mL
  HGF: 3.63 pg/mL
  IFN-α2: 4.08 pg/mL
  IFN-γ: 94.255 pg/mL
  IL-1rα: 18.105 pg/mL
  IL-1α: 0 pg/mL
  IL-1β: 0.335 pg/mL
  IL-2: 0.25 pg/mL
  IL-2rα: 4.06 pg/mL
  IL-3: 6.785 pg/mL
  IL-4: 0.16 pg/mL
  IL-5: 0 pg/mL
  IL-6: 0.435 pg/mL
  IL-7: 3.95 pg/mL
  IL-8: 971.01 pg/mL
  IL-9: 25.865 pg/mL
  IL-10: 3.085 pg/mL
  IL-12: 98.495 pg/mL
  IL-12ρ40: 0 pg/mL
  IL-13: 3.34 pg/mL
  IL-15: 0 pg/mL
  IL-16: 0 pg/mL
  IL-17: 0 pg/mL
  IL-18: 0 pg/mL
  IP-10: 6.19 pg/mL
  LIF: 0 pg/mL
  M-CSF: 3.725 pg/mL
  MCP-1: 7.26 pg/mL
  MCP-3: 0 pg/mL
  MIF: 6.92 pg/mL
  MIG: 3.09 pg/mL
  MIP-1α: 2.25 pg/mL
  MIP-1β: 1.32 pg/mL
  PDGF-β: 1.235 pg/mL
  RANTES: 12.86 pg/mL
  SCF: 0 pg/mL
  SCGF-β: 242.36 pg/mL
  SDF-1α: 13.03 pg/mL
  TNF-α: 4.9 pg/mL
  TNF-β: 0 pg/mL
  TRAIL: 3.43 pg/mL
  VEGF: 1384.84 pg/mL
  β-NGF: 1.04 pg/mL
1 μM to 500 μM
  effect on production of the 48 cytokines/chemokines: did not affect the production
5 μM
  CTACK: 4.29 pg/mL
  Eotaxin: 0 pg/mL
  FGF: 1.415 pg/mL
  G-CSF: 1.99 pg/mL
  GM-CSF: 6.24 pg/mL
  GROα: 0 pg/mL
  HGF: 5.43 pg/mL
  IFN-α2: 3.58 pg/mL
  IFN-γ: 95.43 pg/mL
  IL-1rα: 10.215 pg/mL
  IL-1α: 0 pg/mL
  IL-1β: 0.31 pg/mL
  IL-2: 0.105 pg/mL
  IL-2rα: 4.29 pg/mL
  IL-3: 6.785 pg/mL
  IL-4: 0.05 pg/mL
  IL-5: 0 pg/mL
  IL-6: 0.34 pg/mL
  IL-7: 3.38 pg/mL
  IL-8: 941.46 pg/mL
  IL-9: 25.535 pg/mL
  IL-10: 3.395 pg/mL
  IL-12: 98.855 pg/mL
  IL-12ρ40: 0 pg/mL
  IL-13: 4.8 pg/mL
  IL-15: 0 pg/mL
  IL-16: 0 pg/mL
  IL-17: 0 pg/mL
  IL-18: 0 pg/mL
  IP-10: 4.855 pg/mL
  LIF: 0 pg/mL
  M-CSF: 4.7 pg/mL
  MCP-1: 5.105 pg/mL
  MCP-3: 0 pg/mL
  MIF: 2.735 pg/mL
  MIG: 3.76 pg/mL
  MIP-1α: 2.105 pg/mL
  MIP-1β: 1.09 pg/mL
  PDGF-β: 0.865 pg/mL
  RANTES: 12.27 pg/mL
  SCF: 0 pg/mL
  SCGF-β: 258.645 pg/mL
  SDF-1α: 13.03 pg/mL
  TNF-α: 5.5 pg/mL
  TNF-β: 0 pg/mL
  TRAIL: 4.21 pg/mL
  VEGF: 1240.71 pg/mL
  β-NGF: 0.95 pg/mL
10 μM
  CTACK: 3.45 pg/mL
  Eotaxin: 0 pg/mL
  FGF: 1.53 pg/mL
  G-CSF: 1.99 pg/mL
  GM-CSF: 6.65 pg/mL
  GROα: 0 pg/mL
  HGF: 5.43 pg/mL
  IFN-α2: 4.08 pg/mL
  IFN-γ: 76.375 pg/mL
  IL-1rα: 14.085 pg/mL
  IL-1α: 0 pg/mL
  IL-1β: 0.33 pg/mL
  IL-2: 0.305 pg/mL
  IL-2rα: 3.825 pg/mL
  IL-3: 6.14 pg/mL
  IL-4: 0.235 pg/mL
  IL-5: 0 pg/mL
  IL-6: 0.575 pg/mL
  IL-7: 3.665 pg/mL
  IL-8: 1115.205 pg/mL
  IL-9: 26.025 pg/mL
  IL-10: 3.17 pg/mL
  IL-12: 103.16 pg/mL

From patent US20230114627A1, “COMPOSITION COMPRISING A METAL ASCORBO-CAMPHORATE COMPOUND AND METHOD FOR PREVENTION AND/OR TREATMENT OF PAPILLOMAVIRUS INFECTIONS” (MGB PHARMA Inc., priority 2020, published 2023)
